Measurements taken from patent US10428080B2, “TBK/IKK inhibitor compounds and uses thereof” (Merck Patent GmbH, priority 2015, dated 2019).
Where a name gives a salt, the structure may show the parent alone.

Key:
TBK1 = target: T1, TBK1 (Homo sapiens, UniProt Q9UHD2); assay: TBK Biochemical Assay; details: read-out: TBK1 IC50
T1 sequence (Q9UHD2 1-729): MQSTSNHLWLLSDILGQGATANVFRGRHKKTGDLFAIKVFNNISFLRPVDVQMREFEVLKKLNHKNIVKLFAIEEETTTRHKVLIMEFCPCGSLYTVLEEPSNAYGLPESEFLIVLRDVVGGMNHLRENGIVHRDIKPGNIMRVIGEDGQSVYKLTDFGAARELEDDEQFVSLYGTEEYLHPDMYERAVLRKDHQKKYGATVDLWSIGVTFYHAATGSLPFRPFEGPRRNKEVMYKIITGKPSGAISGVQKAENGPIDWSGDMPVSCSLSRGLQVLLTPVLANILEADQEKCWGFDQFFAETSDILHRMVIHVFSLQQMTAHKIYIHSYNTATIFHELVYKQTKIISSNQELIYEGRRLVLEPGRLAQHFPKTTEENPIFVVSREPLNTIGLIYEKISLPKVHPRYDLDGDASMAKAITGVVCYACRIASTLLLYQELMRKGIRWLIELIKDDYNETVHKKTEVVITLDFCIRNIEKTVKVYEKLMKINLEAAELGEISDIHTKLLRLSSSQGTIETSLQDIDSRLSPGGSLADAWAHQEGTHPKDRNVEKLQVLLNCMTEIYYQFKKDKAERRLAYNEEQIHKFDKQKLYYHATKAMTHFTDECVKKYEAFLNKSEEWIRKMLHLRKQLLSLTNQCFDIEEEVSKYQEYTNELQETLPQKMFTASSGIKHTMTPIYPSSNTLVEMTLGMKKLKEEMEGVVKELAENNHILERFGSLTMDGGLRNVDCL
Method in brief: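 Caliper LabChip mobility-shift readout of substrate and product after 90 min of TBK1 reaction at 25° C and stop-buffer addition. Compounds tested in 1:4 serial dilution over 10 points from 30 uM final at 1% DMSO; staurosporine 10 uM final defines full inhibition.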

IKKε = target: T2, IKKε (Homo sapiens, UniProt Q14164); assay: IKKe Biochemical Assay; details: read-out: IKKε IC50
T2 sequence (Q14164 1-716): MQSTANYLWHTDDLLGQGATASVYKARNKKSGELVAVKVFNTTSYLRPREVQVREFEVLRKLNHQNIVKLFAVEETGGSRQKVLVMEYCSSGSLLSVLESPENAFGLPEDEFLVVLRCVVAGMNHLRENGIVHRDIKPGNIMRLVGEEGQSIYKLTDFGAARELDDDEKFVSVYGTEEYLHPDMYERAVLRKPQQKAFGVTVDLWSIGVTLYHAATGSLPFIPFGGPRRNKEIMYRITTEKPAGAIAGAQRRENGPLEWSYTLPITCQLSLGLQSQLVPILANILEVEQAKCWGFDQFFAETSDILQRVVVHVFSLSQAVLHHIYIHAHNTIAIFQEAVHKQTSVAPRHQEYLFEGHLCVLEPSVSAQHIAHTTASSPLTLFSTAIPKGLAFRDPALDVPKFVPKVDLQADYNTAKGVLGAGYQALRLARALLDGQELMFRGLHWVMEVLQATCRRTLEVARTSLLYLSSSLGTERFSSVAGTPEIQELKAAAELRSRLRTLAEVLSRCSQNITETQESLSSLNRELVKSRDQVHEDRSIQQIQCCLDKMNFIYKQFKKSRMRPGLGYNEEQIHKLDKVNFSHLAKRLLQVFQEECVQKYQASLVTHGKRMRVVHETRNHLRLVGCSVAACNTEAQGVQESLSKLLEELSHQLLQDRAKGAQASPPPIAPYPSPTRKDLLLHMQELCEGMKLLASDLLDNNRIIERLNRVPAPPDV
Method in brief: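 Activity was measured as mobility-shift separation of phosphorylated from unphosphorylated substrate on a LabChip EZ Reader. Compound was titrated from 30 uM final in 10 points, 1:4 steps, with 1% DMSO, and enzyme plus substrate reacted 90 min at 25° C before stop buffer. Control wells held 10 uM staurosporine.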

[1] = tested on: phosphorylation of the IRF-3 protein in MDA-MB-468 cells; assay: pIRF3 immunocytochemistry cell based assay; details: Homo sapiens; MDA-MB-468 cells, Poly(I:C) stimulation; read-out: pIRF3 IC50
Method in brief: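 After 2 h stimulation with Poly(I:C) (10 ug/ml), following 1 h compound pre-treatment (10-point, 3-fold dilution, top 10 uM), MDA-MB-468 cells were fixed and stained with anti-pIRF3 antibody. pIRF3 fluorescence was normalized to PI staining or cell count on an Acumen cytometer. IC50 curves were derived from this.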

N#Cc1cc(-c2ccnc3cc(-c4ccc(C(=O)N[C@@H]5CNCC[C@H]5F)cc4)oc23)ccc1OC1CCOCC1 [Compound 141, 4-{7-[3-Cyano-4-(tetrahydro-pyran-4-yloxy)-phenyl]-furo[3,2-b]pyridin-2-yl}-N-((3R,4R)-4-fluoro-piperidin-3-yl)-benzamide]
IC50 (TBK1): < 100 nM | IC50 (IKKε): < 100 nM | IC50 [1]: 100 to 1000 nM

N#Cc1cc(-c2ccnc3cc(-c4cccc(C(=O)NC5CN6CCC5CC6)c4)oc23)ccc1OC1CCOCC1 (stereo not drawn) [Compound 143]
IC50 (TBK1): < 100 nM | IC50 (IKKε): < 100 nM | IC50 [1]: 100 to 1000 nM

N#Cc1cc(-c2ccnc3cc(-c4ccc(C(=O)NC5CN6CCC5CC6)cc4)oc23)ccc1OC1CCOCC1 (stereo not drawn) [Compound 145, N-(1-Aza-bicyclo[2.2.2]oct-3-yl)-4-{7-[3-cyano-4-(tetrahydro-pyran-4-yloxy)-phenyl]-furo[3,2-b]pyridin-2-yl}-benzamide]
IC50 (TBK1): < 100 nM | IC50 (IKKε): < 100 nM | IC50 [1]: 100 to 1000 nM

COc1cc(C(=O)NC2CN3CCC2CC3)ccc1-c1cc2nccc(-c3ccc(N4CC[C@@H](F)C4)c(C#N)c3)c2o1 (stereo partly drawn) [Compound 146, N-(1-Aza-bicyclo[2.2.2]oct-3-yl)-4-{7-[3-cyano-4-((R)-3-fluoro-pyrrolidin-1-yl)-phenyl]-furo[3,2-b]pyridin-2-yl}-3-methoxy-benzamide]
IC50 (TBK1): < 100 nM | IC50 (IKKε): < 100 nM | IC50 [1]: 100 to 1000 nM

N#Cc1cc(-c2ccnc3cc(-c4ccc(C(=O)N5CCC(F)(F)C5)cc4)oc23)ccc1OC1CCOCC1 [Compound 148, 5-{2-[4-(3,3-Difluoro-pyrrolidine-1-carbonyl)-phenyl]-furo[3,2-b]pyridin-7-yl}-2-(tetrahydro-pyran-4-yloxy)-benzonitrile]
IC50 (TBK1): < 100 nM | IC50 (IKKε): < 100 nM | IC50 [1]: 1000 to 5000 nM

COc1cc(C(=O)N(C)C)ccc1-c1cc2nccc(-c3ccc(OC4CCN(C)C4)c(C#N)c3)c2o1 (stereo not drawn) [Compound 149, 4-{7-[3-Cyano-4-(1-methyl-pyrrolidin-3-yloxy)-phenyl]-furo[3,2-b]pyridin-2-yl}-3-methoxy-N,N-dimethyl-benzamide]
IC50 (TBK1): < 100 nM | IC50 (IKKε): < 100 nM | IC50 [1]: 100 to 1000 nM

COc1cc(C(=O)N(C)C)ccc1-c1cc2nccc(-c3ccc(OC4CCN(C)CC4)c(C#N)c3)c2o1 [Compound 150, 4-{7-[3-Cyano-4-(1-methyl-piperidin-4-yloxy)-phenyl]-furo[3,2-b]pyridin-2-yl}-3-methoxy-N,N-dimethyl-benzamide]
IC50 (TBK1): < 100 nM | IC50 (IKKε): < 100 nM | IC50 [1]: 100 to 1000 nM

COc1cc(C(=O)N(C)C)ccc1-c1cc2nccc(-c3ccc(O[C@@H]4CCNC[C@@H]4F)c(C#N)c3)c2o1 [Compound 153, 4-{7-[3-Cyano-4-((3S,4R)-3-fluoro-piperidin-4-yloxy)-phenyl]-furo[3,2-b]pyridin-2-yl}-3-methoxy-N,N-dimethyl-benzamide hydrochloride]
IC50 (TBK1): < 100 nM | IC50 (IKKε): < 100 nM | IC50 [1]: 100 to 1000 nM

CC(=O)Nc1ccc(-c2cc3nccc(-c4ccc(OC5CCOCC5)c(C#N)c4)c3o2)cc1 [Compound 154]
IC50 (TBK1): < 100 nM | IC50 (IKKε): < 100 nM | IC50 [1]: 1000 to 5000 nM

COc1cc(C(=O)N(C)C)ccc1-c1cc2nccc(-c3ccc(OCC4CCNCC4)c(C#N)c3)c2o1 [Compound 155, 4-{7-[3-Cyano-4-(piperidin-4-ylmethoxy)-phenyl]-furo[3,2-b]pyridin-2-yl}-3-methoxy-N,N-dimethyl-benzamide]
IC50 (TBK1): < 100 nM | IC50 (IKKε): < 100 nM | IC50 [1]: 100 to 1000 nM

CN(C)C(=O)c1ccc(-c2cc3nccc(-c4ccc(O[C@@H]5CCCOC5)c(C#N)c4)c3o2)cc1 [Compound 156, 4-(7-{3-Cyano-4-[(R)-(tetrahydro-pyran-3-yl)oxy]-phenyl}-furo[3,2-b]pyridin-2-yl)-N,N-dimethyl-benzamide]
IC50 (TBK1): < 100 nM | IC50 (IKKε): < 100 nM | IC50 [1]: 1000 to 5000 nM
